Among the data in patent US20230093099A1, “COMPOUNDS AND METHODS OF TREATING CANCERS” (CULLGEN (SHANGHAI), INC., priority 2019, published 2023) are IC50 values, retold here.

Molecules are shown by their SMILES.

The test system of the first test is RS4;11 cells. As to the kind of experiment: Cell viability assay (CellTiter-Glo) in RS4;11 cells. Format: cell-based. Conditions: Homo sapiens, 72 h; RS4;11 ALL cells treated for three days; read-out: cell viability inhibition IC50. The essentials: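 RS4;11 cells seeded at 5000 per well, exposed for 3 days to 8- or 12-point 3-fold serial dilutions. Viability read by CellTiter-Glo luminescence; IC50 fitted by nonlinear least-squares regression.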
On the technique in general: In ATP-based viability assays light output follows the ATP content of the culture.
The IC50 is the concentration needed to halve the response being measured. With `Cc1cnc(Nc2ccc(N3CCN(C(=O)CNc4ccc5c(c4)C(=O)N(C4CCC(=O)NC4=O)C5=O)CC3)cc2)nc1Nc1cccc(S(=O)(=O)NC(C)(C)C)c1` (stereo not drawn) [JA-225, N-(tert-butyl)-3-((2-((4-(4-((2-(2,6-dioxopiperidin-3-yl)-1,3-dioxoisoindolin-5-yl)glycyl)piperazin-1-yl)phenyl)amino)-5-methylpyrimidin-4-yl)amino)benzenesulfonamide], the IC50 is under 100 nM.

Still in this test, the particulars now being: Homo sapiens, 72 h; RS4;11 cells; cell viability, 3 days, CellTiter-Glo; read-out: IC50.
Regarding `Cc1cnc(Nc2ccc(N3CCN(C(=O)CNc4ccc5c(c4)C(=O)N(C4CCC(=O)NC4=O)C5=O)CC3)cc2)nc1Nc1cccc(S(=O)(=O)NC(C)(C)C)c1` (stereo not drawn) [JA-225, N-(tert-butyl)-3-((2-((4-(4-((2-(2,6-dioxopiperidin-3-yl)-1,3-dioxoisoindolin-5-yl)glycyl)piperazin-1-yl)phenyl)amino)-5-methylpyrimidin-4-yl)amino)benzenesulfonamide], the half-maximal inhibitory concentration (IC50) worked out at 65.8 nM.
The same measure, in the same setting: in the case of `O=C1CCC(N2C(=O)c3ccc(CCCCCCC(=O)N4CCC(n5cc(-c6cnc7cccc(-c8cc(F)c(CN9CCOCC9)c(F)c8)c7n6)cn5)CC4)cc3C2=O)C(=O)N1` (stereo not drawn) [JA-257, 5-(7-(4-(4-(8-(3,5-Difluoro-4-(morpholinomethyl)phenyl)quinoxalin-2-yl)-1H-pyrazol-1-yl)piperidin-1-yl)-7-oxoheptyl)-2-(2,6-dioxopiperidin-3-yl)isoindoline-1,3-dione] it was 137 nM.
Same read-out and setting: in the case of `Cn1c(=O)n(C2CCC(=O)NC2=O)c2ccc(NCCCCC(=O)N3CCN(c4ccc(Nc5nc6cccc(-c7ccc(S(C)(=O)=O)cc7)n6n5)cc4)CC3)cc21` (stereo not drawn) [JA-291, 3-(3-Methyl-5-((5-(4-(4-((5-(4-(methylsulfonyl)phenyl)-[1,2,4]triazolo[1,5-a]pyridin-2-yl)amino)phenyl)piperazin-1-yl)-5-oxopentyl)amino)-2-oxo-2,3-dihydro-1H-benzo[d]imidazol-1-yl)piperidine-2,6-dione] it was over 500 nM; in that of `O=C(CN1CCC(n2cc(-c3cnc4cccc(-c5cc(F)c(CN6CCOCC6)c(F)c5)c4n3)cn2)CC1)NCCOCCOCCOCCOCCOCCNc1ccc2c(c1)C(=O)N(C1CCC(=O)NC1=O)C2=O` (stereo not drawn) [JA-173, 2-(4-(4-(8-(3,5-Difluoro-4-(morpholinomethyl)phenyl)quinoxalin-2-yl)-1H-pyrazol-1-yl)piperidin-1-yl)-N-(17-((2-(2,6-dioxopiperidin-3-yl)-1,3-dioxoisoindolin-5-yl)amino)-3,6,9,12,15-pentaoxaheptadecyl)acetamide], over 10000 nM.
For the molecule `Cc1ncsc1-c1ccc(CNC(=O)[C@@H]2C[C@@H](O)CN2C(=O)[C@@H](NC(=O)CCCCCCCCCCNC(=O)CN2CCN(c3ccc(Nc4nc5cccc(-c6ccc(S(C)(=O)=O)cc6)n5n4)cc3)CC2)C(C)(C)C)cc1` [JA-128, (2S,4R)-1-((S)-3,3-Dimethyl-2-(11-(2-(4-(4-((5-(4-(methylsulfonyl)phenyl)-[1,2,4]triazolo[1,5-a]pyridin-2-yl)amino)phenyl)piperazin-1-yl)acetamido)undecanamido)butanoyl)-4-hydroxy-N-(4-(4-methylthiazol-5-yl)benzyl)pyrrolidine-2-carboxamide], the IC50 is over 10000 nM.
On the same count and under the same terms, in the case of `O=C1CCC(N2C(=O)c3ccc(C#CCCCCCN4CCC(n5cc(-c6cnc7cccc(-c8cc(F)c(CN9CCOCC9)c(F)c8)c7n6)cn5)CC4)cc3C2=O)C(=O)N1` (stereo not drawn) [JA-264, 5-(7-(4-(4-(8-(3,5-difluoro-4-(morpholinomethyl)phenyl)quinoxalin-2-yl)-1H-pyrazol-1-yl)piperidin-1-yl)hept-1-yn-1-yl)-2-(2,6-dioxopiperidin-3-yl)isoindoline-1,3-dione] it was 98.6 nM; in that of `Cn1c(=O)n(C2CCC(=O)NC2=O)c2ccc(NCCCCCC(=O)N3CCN(c4ccc(Nc5nc6cccc(-c7ccc(S(C)(=O)=O)cc7)n6n5)cc4)CC3)cc21` (stereo not drawn) [JA-292, 3-(3-Methyl-5-((6-(4-(4-((5-(4-(methylsulfonyl)phenyl)-[1,2,4]triazolo[1,5-a]pyridin-2-yl)amino)phenyl)piperazin-1-yl)-6-oxohexyl)amino)-2-oxo-2,3-dihydro-1H-benzo[d]imidazol-1-yl)piperidine-2,6-dione], over 500 nM.
The same measure, in the same setting: under `CS(=O)(=O)c1ccc(-c2cccc3nc(Nc4ccc(N5CCN(CCCCCCNc6ccc7c(c6)C(=O)N(C6CCC(=O)NC6=O)C7=O)CC5)cc4)nn23)cc1` (stereo not drawn) [JA-254, 2-(2,6-Dioxopiperidin-3-yl)-5-((6-(4-(4-((5-(4-(methylsulfonyl)phenyl)-[1,2,4]triazolo[1,5-a]pyridin-2-yl)amino)phenyl)piperazin-1-yl)hexyl)amino)isoindoline-1,3-dione] stands 1150 nM; under `Cc1cnc(Nc2ccc(N3CCN(C(=O)COCC(=O)N[C@H](C(=O)N4C[C@H](O)C[C@H]4C(=O)NCc4ccc(-c5scnc5C)cc4)C(C)(C)C)CC3)cc2)nc1Nc1cccc(S(=O)(=O)NC(C)(C)C)c1` [JA-030, (2S,4R)-1-((S)-2-(2-(2-(4-(4-((4-((3-(N-(tert-Butyl)sulfamoyl)phenyl)amino)-5-methylpyrimidin-2-yl)amino)phenyl)piperazin-1-yl)-2-oxoethoxy)acetamido)-3,3-dimethylbutanoyl)-4-hydroxy-N-(4-(4-methylthiazol-5-yl)benzyl)pyrrolidine-2-carboxamide], over 10000 nM.
As to `Cc1cnc(Nc2ccc(N3CCN(CC(=O)NCCCCNc4ccc5c(c4)C(=O)N(C4CCC(=O)NC4=O)C5=O)CC3)cc2)nc1Nc1cccc(S(=O)(=O)NC(C)(C)C)c1` (stereo not drawn) [JA-243, 2-(4-(4-((4-((3-(N-(tert-butyl)sulfamoyl)phenyl)amino)-5-methylpyrimidin-2-yl)amino)phenyl)piperazin-1-yl)-N-(4-((2-(2,6-dioxopiperidin-3-yl)-1,3-dioxoisoindolin-5-yl)amino)butyl)acetamide], the IC50 was found to be 1980 nM.
Same read-out and setting: under `CS(=O)(=O)c1ccc(-c2cccc3nc(Nc4ccc(N5CCN(CC(=O)NCCNc6ccc7c(c6)C(=O)N(C6CCC(=O)NC6=O)C7=O)CC5)cc4)nn23)cc1` (stereo not drawn) [JA-207, N-(2-((2-(2,6-Dioxopiperidin-3-yl)-1,3-dioxoisoindolin-5-yl)amino)ethyl)-2-(4-(4-((5-(4-(methylsulfonyl)phenyl)-[1,2,4]triazolo[1,5-a]pyridin-2-yl)amino)phenyl)piperazin-1-yl)acetamide] stands 1240 nM; under `CS(=O)(=O)c1ccc(-c2cccc3nc(Nc4ccc(N5CCN(C(=O)CCCCCCCNc6cccc7c6C(=O)N(C6CCC(=O)NC6=O)C7=O)CC5)cc4)nn23)cc1` (stereo not drawn) [JA-084, 2-(2,6-Dioxo-piperidin-3-yl)-4-[8-(4-{4-[5-(4-methanesulfonyl-phenyl)-[1,2,4]triazolo[1,5-a]pyridin-2-ylamino]-phenyl}-piperazin-1-yl)-8-oxo-octylamino]-isoindole-1,3-dione], over 10000 nM; under `Cn1c(=O)n(C2CCC(=O)NC2=O)c2cccc(NCCCCC(=O)N3CCN(c4ccc(Nc5nc6cccc(-c7ccc(S(C)(=O)=O)cc7)n6n5)cc4)CC3)c21` (stereo not drawn) [JA-290, 3-(3-Methyl-4-((5-(4-(4-((5-(4-(methylsulfonyl)phenyl)-[1,2,4]triazolo[1,5-a]pyridin-2-yl)amino)phenyl)piperazin-1-yl)-5-oxopentyl)amino)-2-oxo-2,3-dihydro-1H-benzo[d]imidazol-1-yl)piperidine-2,6-dione], over 500 nM.
The same measure, in the same setting: in the case of `O=C(CN1CCC(n2cc(-c3cnc4cccc(-c5cc(F)c(CN6CCOCC6)c(F)c5)c4n3)cn2)CC1)NCCNc1ccc2c(c1)C(=O)N(C1CCC(=O)NC1=O)C2=O` (stereo not drawn) [JA-174, 2-(4-(4-(8-(3,5-Difluoro-4-(morpholinomethyl)phenyl)quinoxalin-2-yl)-1H-pyrazol-1-yl)piperidin-1-yl)-N-(2-((2-(2,6-dioxopiperidin-3-yl)-1,3-dioxoisoindolin-5-yl)amino)ethyl)acetamide] it was 2450 nM.
